The source of these data is patent publication US20240382564A1, “Methods and Compositions for Treating Muscular Dystrophy and Memory Impairment” (Allysta Pharmaceuticals, Inc., priority 2023, published 2024).

Where no end group is shown, it is not given here. [ ]: non-standard residue; d: D form. Nva = CCC[C@H](N)C(=O)O

Assay [1] deals with D2.mdx mice. As to the kind of experiment: Mitochondrial H2O2 emission in permeabilized muscle fibre bundles. The format is in vivo, mouse. How it is done: (§1) D2.mdx mice were treated with ALY688 at two different dosages; high dose (HD; 15 mg/kg body weight/day) or low dose (LD; 3 mg/kg body weight/day) dissolved in saline. A separate group of mice were treated with saline alone (VEH, vehicle). Treatment was provided via subscapular subcutaneous injections from 7 days of age to 28-30 days. […] At 28-30 days of age, mice were anaesthetized with isoflurane vaporized in medical air (21% oxygen) at a 2 L/min flow rate. Due to tissue limitations in limb muscle, certain measures were performed separately in tibialis anterior and quadriceps across several phases of breeding. Following the treatment protocol, in situ quadriceps force assessments were then performed in one limb followed by removal of the quadriceps from the other limb for mitochondrial assessments, diaphragm for in vitro force assessments and finally other tissues for further processing as described below. Muscle and visceral organs weights were normalized to tibia length. Tissue collected from the first phase were utilized in force, histological, mitochondrial measures (respiration, mH2O2 and calcium retention capacity) and western analyses (diaphragm and quadriceps only). A second phase was then collected and utilized for cytokine profiling, qPCR analyses and additional westerns (TA only). Serum was collected from both phase 1 and 2 and utilized for serum CK analysis. All animals were utilized in in vivo functional assays (grip strength, cage hang time and voluntary wheel running).
The quadriceps from the non-stimulated limb and the diaphragm were collected and quickly placed in a buffer containing (in mM) 50 MES Hydrate, 7.23 K2EGTA, 2.77 CaK2EGTA, 20 imidazole, 0.5 dithiothreitol, 20 taurine, 5.77 ATP, 15 PCr, and 6.56 MgCl2·6H2O (pH 7.1). Both muscles were trimmed of connective tissue and fat and separated along the longitudinal axis into small bundles weighing approximately 1.0-2.5 mg wet weight for respiration and mH2O2 and 0.5-1.5 mg wet weight for calcium retention capacity. Bundles were permeabilized with […] saponin (Sigma Aldrich; St. Louis, MI, USA) in BIOPS on a platform rotor for 30 minutes at 4° C. The permeabilized bundles were then transferred to wash buffers to remove saponin as follows: MiRO5 for mitochondrial respiration, Buffer Z for mitochondrial H2O2 emission (mH2O2), and Buffer Y for calcium retention capacity. The composition of each buffer has been described previously. Fibres prepared for pyruvate-supported mitochondrial H2O2 emission (mH2O2) were permeabilized in the presence of 35 μM 2,4-dinitrochlorobenzene (CDNB) to deplete glutathione and enhance the detection of mH2O2. All bioenergetic assays were performed within 4 hours of washing to maintain fibre viability.
Briefly, mH2O2 was determined spectrofluorometrically (QuantaMaster 40, HORIBA Scientific, Irvine, CA, USA) utilizing Buffer Z containing 10 μM Amplex Ultra Red (Life Technologies; Carlsbad, CA, USA), 1 U/mL horseradish peroxidase, 1 mM EGTA, 40 U/mL Cu/Zn SOD1, 5 μM blebbistatin and 20 mM Cr. […] The ability of ADP to suppress mH2O2 was assessed with a titration of physiological concentrations (25, 100) and saturating for oxidant generation (500 μM). […] The rate of mH2O2 emission was calculated using a standard curve under the same assay conditions and then normalized to fibre bundle dry weight.

The subject of assay [2] is D2.mdx mice. The assay is described as follows: Muscle cytokine protein profiling (LEGENDplex). The format is in vivo, mouse. The conditions noted are these: HD. How it is done:
as §1
Tibialis anterior and diaphragm samples were homogenized in lysis buffer containing (in mM) (20 Tris/HCl, 150 NaCl, 1 EDTA, 1 EGTA, 1% Triton X-100, 2.5 Na4O7P2, 1 Na3VO4, pH 7.0) supplemented with protease (Roche) and phosphatase inhibitors (Sigma). Samples were diluted two-fold in the assay buffer before loading to the plates with beads. According to the manufacturer's instructions, levels of TGF-β, TNF-α, IL-1β, IL-6 and IL-10 in the homogenates were measured using LEGENDplex™ Mouse Custom Panel. Assay was performed in the Attune NxT flow cytometer (Thermo Fisher). The FCS files generated on the flow cytometer were analyzed using the LEGENDplex™ cloud-based analysis software.

As to [dN]IP[Nva]LY[dS]FA[dS]-NH2 [ALY688], the “mitochondrial responsiveness to ADP (pyruvate/malate-supported mH2O2 emission)” value in assay [1] (diaphragm, HD) is on record as “completely preserved”. Also, the “reduction of pyruvate/malate-supported mH2O2 emission” value in assay [1] (diaphragm, HD, across ADP concentrations) is listed as 8.7 to 70.7%. Also, the “succinate-induced mH2O2 emission” value in assay [1] (diaphragm, absence and presence of creatine, LD and HD) is recorded as “no effect of either drug dose”. Moreover, the “attenuation of succinate-induced mH2O2 emission” value in assay [1] (quadriceps, both doses, absence and presence of creatine) is recorded as 11.3 to 73.6%. Moreover, the “attenuation of pyruvate/malate-supported mH2O2 emission” value in assay [1] (quadriceps, both doses, across ADP concentrations) is on record as 45.9 to 62.3%. Also, in assay [2] (diaphragm), the IL-6 protein content is recorded as 69.1 % increase vs VEH, the IL-10 protein content entry was “not different between groups”, the TGF-β protein content came to 20.3 % increase vs VEH and the TNF-α protein content result is recorded as “not different between groups”. Also, the “prevention of the increase in TNF-α protein content” value in assay [2] (tibialis anterior, VEH 40.6 pg/ml, not detectable in wildtype) is 83.9%.
